# Data reported in US10894784B2, “Heteroarylbenzimidazole compounds” (BAYER PHARMA AKTIENGESELLSCHAFT, priority 2015, dated 2021).
# Target: TBK1 (Homo sapiens (Human), UniProt Q9UHD2)
# Experiment: TBK1 low ATP kinase assay (in vitro assay 1)
# Type: biochemical
# Conditions: in vitro assay 1, read-out: TBK1 low ATP kinase assay IC50
# Sequence of TBK1 (Q9UHD2 whole entry): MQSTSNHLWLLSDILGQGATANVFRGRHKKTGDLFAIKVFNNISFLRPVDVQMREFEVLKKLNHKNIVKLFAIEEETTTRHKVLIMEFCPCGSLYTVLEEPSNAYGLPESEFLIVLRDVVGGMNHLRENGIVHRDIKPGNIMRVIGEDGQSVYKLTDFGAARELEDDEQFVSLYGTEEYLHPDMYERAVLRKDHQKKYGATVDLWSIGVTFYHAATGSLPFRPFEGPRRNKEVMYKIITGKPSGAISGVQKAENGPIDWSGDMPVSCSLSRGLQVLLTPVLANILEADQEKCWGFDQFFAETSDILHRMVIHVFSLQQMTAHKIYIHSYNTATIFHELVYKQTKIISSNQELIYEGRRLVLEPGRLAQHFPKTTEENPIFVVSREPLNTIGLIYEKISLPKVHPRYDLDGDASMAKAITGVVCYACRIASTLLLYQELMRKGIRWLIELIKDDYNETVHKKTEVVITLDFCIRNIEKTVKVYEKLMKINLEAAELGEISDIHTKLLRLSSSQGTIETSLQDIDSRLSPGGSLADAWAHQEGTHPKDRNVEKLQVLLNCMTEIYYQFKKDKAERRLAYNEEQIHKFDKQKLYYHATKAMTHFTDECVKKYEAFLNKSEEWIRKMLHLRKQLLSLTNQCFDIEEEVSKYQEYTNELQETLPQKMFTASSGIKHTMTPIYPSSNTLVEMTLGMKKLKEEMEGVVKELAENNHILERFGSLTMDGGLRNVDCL
row,SMILES,IC50
1,"COc1cc(-c2ccc3nc(Nc4cc(CN5CCN(C(=O)C6CC6)CC5)ccn4)[nH]c3c2)ccn1 [Example 02.02, cyclopropyl{4-[(2-{[6-(2-methoxypyridin-4-yl)-1H-benzimidazol-2-yl]amino}pyridin-4-yl)methyl]piperazin-1-yl}methanone]",0.0307 µM
2,"COc1c(-c2ccc3nc(Nc4cc(CN5CCN(C(=O)OC(C)(C)C)CC5)ccn4)[nH]c3c2)ncnc1N(C)C [Example 107.01.01, tert-butyl 4-{[2-({6-[6-(dimethylamino)-5-methoxypyrimidin-4-yl]-1H-benzimidazol-2-yl}amino)pyridin-4-yl]methyl}piperazine-1-carboxylate]",0.052 µM
3,"CC(c1ccnc(Nc2nc3ccc(-c4cnn(CC5(Cl)CC5)c4)cc3[nH]2)c1)N1CCN(C(=O)OC(C)(C)C)CC1 (single isomer, unassigned) [Example 69.01, tert-butyl 4-[(1R or 1S)-1-{2-[(6-{1-[(1-chlorocyclopropyl)methyl]-1H-pyrazol-4-yl}-1H-benzimidazol-2-yl)amino]pyridin-4-yl}ethyl]piperazine-1-carboxylate]",0.012 µM
4,"COc1cc(-c2ccc3nc(Nc4cc(CN5CCN(C(=O)CC6CC6)CC5)ccn4)[nH]c3c2)ccn1 [Example 02.05, 2-cyclopropyl-1-{4-[(2-{[6-(2-methoxypyridin-4-yl)-1H-benzimidazol-2-yl]amino}pyridin-4-yl)methyl]piperazin-1-yl}ethanone]",0.0498 µM
5,"COc1cnc(OCC2CC2)nc1-c1ccc2nc(Nc3cc(CN4CCN(C(=O)C5CC5)CC4)ccn3)[nH]c2c1 [Example 64.01.02, cyclopropyl(4-{[2-({6-[2-(cyclopropylmethoxy)-5-methoxypyrimidin-4-yl]-1H-benzimidazol-2-yl}amino)pyridin-4-yl]methyl}piperazin-1-yl)methanone]",0.0337 µM
6,"COc1ncccc1-c1ccc2nc(Nc3cc(CN4CCN(C(=O)C5CC5)CC4)ccn3)[nH]c2c1 [Example 15.03, cyclopropyl{4-[(2-{[6-(2-methoxypyridin-3-yl)-1H-benzimidazol-2-yl]amino}pyridin-4-yl)methyl]piperazin-1-yl}methanone]",3.81 µM
7,"COc1cncnc1-c1ccc2nc(Nc3cc(CN4CCN(C(=O)N(C)C)CC4)ccn3)[nH]c2c1 [Example 35.01.03, 4-[(2-{[6-(5-methoxypyrimidin-4-yl)-1H-benzimidazol-2-yl]amino}pyridin-4-yl)methyl]-N,N-dimethylpiperazine-1-carboxamide]",0.0591 µM
8,"CN(c1cc(-c2ccc3nc(Nc4cc(CN5CCN(C(=O)CC(F)(F)F)CC5)ccn4)[nH]c3c2)ncn1)C1CC1 [Example 157.02, 1-[4-({2-[(6-{6-[cyclopropyl(methyl)amino]pyrimidin-4-yl}-1H-benzimidazol-2-yl)amino]pyridin-4-yl}methyl)piperazin-1-yl]-3,3,3-trifluoropropan-1-one]",0.0089 µM
9,"CCN(CC)c1cc(-c2ccc3nc(Nc4cc(CN5CCN(C(=O)C6CC6)CC5)ccn4)[nH]c3c2)ncn1 [Example 155.03, cyclopropyl(4-{[2-({6-[6-(diethylamino)pyrimidin-4-yl]-1H-benzimidazol-2-yl}amino)pyridin-4-yl]methyl}piperazin-1-yl)methanone]",0.017 µM
10,"O=C(CC(F)(F)F)N1CCN(Cc2ccnc(Nc3nc4ccc(-c5ccncc5C(F)(F)F)cc4[nH]3)c2)CC1 [Example 106.01, 3,3,3-trifluoro-1-(4-{[2-({6-[3-(trifluoromethyl)pyridin-4-yl]-1H-benzimidazol-2-yl}amino)pyridin-4-yl]methyl}piperazin-1-yl)propan-1-one]",1.5 µM
11,"Cc1nccc(-c2ccc3nc(Nc4cc(C(C)N5CCN(C(=O)CC6CC6)CC5)ccn4)[nH]c3c2)n1 (single isomer, unassigned) [Example 24.05.03.B, 2-cyclopropyl-1-{4-[(1S or 1R)-1-(2-{[6-(2-methylpyrimidin-4-yl)-1H-benzimidazol-2-yl]amino}pyridin-4-yl)ethyl]piperazin-1-yl}ethanone]",0.0138 µM
12,"N#Cc1cnccc1-c1ccc2nc(Nc3cc(CN4CCN(C(=O)CC(F)(F)F)CC4)ccn3)[nH]c2c1 [Example 133.02, 4-{2-[(4-{[4-(3,3,3-trifluoropropanoyl)piperazin-1-yl]methyl}pyridin-2-yl)amino]-1H-benzimidazol-6-yl}pyridine-3-carbonitrile]",0.14 µM
13,"COc1cc(-c2ccc3nc(Nc4cc(CN5CCN(C(=O)C6CC6)CC5)ccn4)[nH]c3c2)ncn1 [Example 163.03, cyclopropyl{4-[(2-{[6-(6-methoxypyrimidin-4-yl)-1H-benzimidazol-2-yl]amino}pyridin-4-yl)methyl]piperazin-1-yl}methanone]",0.018 µM
14,"CCOc1c(-c2cnn(CC)c2)ccc2nc(Nc3cc(CN4CCN(C(=O)C5CC5)CC4)ccn3)[nH]c12 [Example 53.02, cyclopropyl{4-[(2-{[7-ethoxy-6-(1-ethyl-1H-pyrazol-4-yl)-1H-benzimidazol-2-yl]amino}pyridin-4-yl)methyl]piperazin-1-yl}methanone]",0.121 µM
15,"CCn1cc(-c2ccc3nc(Nc4cc(CN5CCN(C(=O)C6CC6)CC5)ccn4)[nH]c3c2)cn1 [Example 38.03, cyclopropyl{4-[(2-{[6-(1-ethyl-1H-pyrazol-4-yl)-1H-benzimidazol-2-yl]amino}pyridin-4-yl)methyl]piperazin-1-yl}methanone]",0.0558 µM
16,"COc1c(Cl)ncnc1-c1ccc2nc(Nc3cc(CN4CCN(C(=O)CC(F)(F)F)CC4)ccn3)[nH]c2c1 [Example 60.01, 1-{4-[(2-{[6-(6-chloro-5-methoxypyrimidin-4-yl)-1H-benzimidazol-2-yl]amino}pyridin-4-yl)methyl]piperazin-1-yl}-3,3,3-trifluoropropan-1-one]",0.043 µM
17,"CC(C)(C)OC(=O)N1CCN(Cc2ccnc(Nc3nc4ccc(-c5cc(OCC6CCC6)ncn5)cc4[nH]3)c2)CC1 [Example 159.01, tert-butyl 4-{[2-({6-[6-(cyclobutylmethoxy)pyrimidin-4-yl]-1H-benzimidazol-2-yl}amino)pyridin-4-yl]methyl}piperazine-1-carboxylate]",0.31 µM
18,"COc1nccc(-c2ccc3nc(Nc4cc(CN5CCN(C(=O)C6CC6)CC5)cc(C(F)(F)F)n4)[nH]c3c2)n1 [Example 25.02.01, cyclopropyl(4-{[2-{[6-(2-methoxypyrimidin-4-yl)-1H-benzimidazol-2-yl]amino}-6-(trifluoromethyl)pyridin-4-yl]methyl}piperazin-1-yl)methanone]",0.346 µM
19,"CC(c1ccnc(Nc2nc3ccc(-c4cc(C(F)(F)F)ncn4)c(F)c3[nH]2)c1)N1CCN(C(=O)C2CC2)CC1 (single isomer, unassigned) [Example 173.03, cyclopropyl(4-{(1R or 1S)-1-[2-({7-fluoro-6-[6-(trifluoromethyl)pyrimidin-4-yl]-1H-benzimidazol-2-yl}amino)pyridin-4-yl]ethyl}piperazin-1-yl)methanone]",0.0506 µM

# Compounds with a lower IC50, results first:
row,IC50,SMILES
1,0.00858 µM,"CCOc1nccc(-c2ccc3nc(Nc4cc(CN5CCN(C(=O)C6CC6)CC5)ccn4)[nH]c3c2)n1 [Example 26.01.02, cyclopropyl{4-[(2-{[6-(2-ethoxypyrimidin-4-yl)-1H-benzimidazol-2-yl]amino}pyridin-4-yl)methyl]piperazin-1-yl}methanone]"
2,0.0075 µM,"CC(C)(C)OC(=O)N1CCN(Cc2ccnc(Nc3nc4ccc(-c5cc(NCC6CC6)ncn5)cc4[nH]3)c2)CC1 [Example 142.01, tert-butyl 4-({2-[(6-{6-[(cyclopropylmethyl)amino]pyrimidin-4-yl}-1H-benzimidazol-2-yl)amino]pyridin-4-yl}methyl)piperazine-1-carboxylate]"
3,0.00671 µM,"O=C(C1CC1)N1CCN(Cc2ccnc(Nc3nc4ccc(-c5cnn(CC6CCC6)c5)cc4[nH]3)c2)CC1 [Example 59.02.02, (4-{[2-({6-[1-(cyclobutylmethyl)-1H-pyrazol-4-yl]-1H-benzimidazol-2-yl}amino)pyridin-4-yl]methyl}piperazin-1-yl)(cyclopropyl)methanone]"
4,0.0042 µM,"CC(C)Nc1cc(-c2ccc3nc(Nc4cc(CN5CCN(C(=O)OC(C)(C)C)CC5)ccn4)[nH]c3c2)ncn1 [Example 154.01, tert-butyl 4-{[2-({6-[6-(propan-2-ylamino)pyrimidin-4-yl]-1H-benzimidazol-2-yl}amino)pyridin-4-yl]methyl}piperazine-1-carboxylate]"
5,0.00326 µM,"CC(c1ccnc(Nc2nc3ccc(-c4cc(C(F)F)ncn4)cc3[nH]2)c1)N1CCN(C(=O)C2CC2)CC1 (single isomer, unassigned) [Example 174.03, cyclopropyl(4-{(1R or 1S)-1-[2-({6-[6-(difluoromethyl)pyrimidin-4-yl]-1H-benzimidazol-2-yl}amino)pyridin-4-yl]ethyl}piperazin-1-yl)methanone]"
6,0.00299 µM,"CC(c1ccnc(Nc2nc3ccc(-c4ccncn4)cc3[nH]2)c1)N1CCN(C(=O)C2CCC2)CC1 (single isomer, unassigned) [Example 23.05.03.A, cyclobutyl{4-[(1R or 1S)-1-(2-{[6-(pyrimidin-4-yl)-1H-benzimidazol-2-yl]amino}pyridin-4-yl)ethyl]piperazin-1-yl}methanone]"
7,0.002 µM,"CC(c1ccnc(Nc2nc3ccc(-c4cnn(CC5CC5(C)C)c4)cc3[nH]2)c1)N1CCN(C(=O)C2CC2)CC1 (single isomer, unassigned) [Example 67.03, cyclopropyl{4-[(1R or 1S)-1-(2-{[6-(1-{[(1RS)-2,2-dimethylcyclopropyl]methyl}-1H-pyrazol-4-yl)-1H-benzimidazol-2-yl]amino}pyridin-4-yl)ethyl]piperazin-1-yl}methanone]"
8,0.0015 µM,"COc1c(C)ncnc1-c1ccc2nc(Nc3cc(C(C)N4CCN(C(=O)C5CC5)CC4)ccn3)[nH]c2c1 (single isomer, unassigned) [Example 83.04, cyclopropyl{4-[(1R or 1S)-1-(2-{[6-(5-methoxy-6-methylpyrimidin-4-yl)-1H-benzimidazol-2-yl]amino}pyridin-4-yl)ethyl]piperazin-1-yl}methanone]"
